According to article PMC8247405 (British Journal of Clinical Pharmacology, 2020):

Key:
[1] = system: patients; details: in vivo; cited from earlier work
[2] = system: type‐2 diabetes patients; details: human, in vivo
[3] = system: type‐2 diabetes patients; set-up: species or system human; details: in vivo
[4] = system: type‐2 diabetes patients; details: human, in vivo; remark: listed apart in the source
[5] = system: type‐2 diabetes patients; details: human, in vivo; remark: listed apart in the source
[6] = system: type‐2 diabetes patients; details: human, in vivo; cited from earlier work
[7] = system: renal transplant recipients; details: in vivo, cited from earlier work

Question: With `CCOC(=O)N1c2ccc(C(F)(F)F)cc2[C@@H](N(Cc2cc(C(F)(F)F)cc(C(F)(F)F)c2)C(=O)OC)C[C@H]1CC` [torcetrapib] as the molecule, how does the “effect on FMD” value [1] read?
Answer: pharmacological decrease in FMD

Question: With `CCC(CC)CC1(C(=O)Nc2ccccc2SC(=O)C(C)C)CCCCC1` [dalcetrapib] as the molecule, how does the “effect on FMD and CV events” value [1] read?
Answer: neutral on both FMD and CV events

Question: With `CCCc1nn(C)c2c(=O)[nH]c(-c3cc(S(=O)(=O)N4CCN(C)CC4)ccc3OCC)nc12` [sildenafil] as the molecule, how does the “vasodilatory effect (blood pressure, BAD)” value [2] read?
Answer: no blood pressure‐lowering or BAD increase

Question: What about the “FMD change versus placebo Mean estimate [95% CI]” value [3] of the same molecule?
Answer: 0.88%

Question: What about the FMD with treatment [3] of the same molecule?
Answer: about 5%

Question: And the “Patients with TEAE: Any class” value [4]?
Answer: 5 (41.7%) n (%)

Question: And the “Patients with TEAE: Arthropod sting” value [4]?
Answer: 0 n (%)

Question: And the “Patients with TEAE: Back pain” value [4]?
Answer: 1 (8.3%) n (%)

Question: What about the “Patients with TEAE: Cardiac disorders” value [4] of the same molecule?
Answer: 1 (8.3%) n (%)

Question: What about the “Patients with TEAE: Contusion” value [4] of the same molecule?
Answer: 0 n (%)

Question: What about the “Patients with TEAE: Cough” value [4] of the same molecule?
Answer: 0 n (%)

Question: What about the “Patients with TEAE: Diarrhoea” value [4] of the same molecule?
Answer: 2 (16.7%) n (%)

Question: What about the “Patients with TEAE: Dyspepsia” value [4] of the same molecule?
Answer: 1 (8.3%) n (%)

Question: And the “Patients with TEAE: Epistaxis” value [4]?
Answer: 0 n (%)

Question: What about the “Patients with TEAE: Erythema” value [4] of the same molecule?
Answer: 2 (16.7%) n (%)

Question: What about the “Patients with TEAE: Gastroesophageal reflux disease” value [4] of the same molecule?
Answer: 1 (8.3%) n (%)

Question: And the “Patients with TEAE: Gastrointestinal disorders” value [4]?
Answer: 3 (25.0%) n (%)

Question: What about the “Patients with TEAE: General disorders and administration site conditions” value [4] of the same molecule?
Answer: 0 n (%)

Question: And the “Patients with TEAE: Headache” value [4]?
Answer: 2 (16.7%) n (%)

Question: And the “Patients with TEAE: Infections and infestations” value [4]?
Answer: 1 (8.3%) n (%)

Question: And the “Patients with TEAE: Injury, poisoning and procedural complications” value [4]?
Answer: 0 n (%)

Question: What about the “Patients with TEAE: Leading to treatment discontinuation” value [4] of the same molecule?
Answer: 1 (8.3%) n (%)

Question: And the “Patients with TEAE: Musculoskeletal and connective tissue disorders” value [4]?
Answer: 1 (8.3%) n (%)

Question: And the “Patients with TEAE: Musculoskeletal pain” value [4]?
Answer: 0 n (%)

Question: And the “Patients with TEAE: Nasopharyngitis” value [4]?
Answer: 1 (8.3%) n (%)

Question: And the “Patients with TEAE: Nausea” value [4]?
Answer: 0 n (%)

Question: And the “Patients with TEAE: Neck pain” value [4]?
Answer: 0 n (%)

Question: What about the “Patients with TEAE: Nervous system disorders” value [4] of the same molecule?
Answer: 2 (16.7%) n (%)

Question: What about the “Patients with TEAE: Obstructive airways disorder” value [4] of the same molecule?
Answer: 0 n (%)

Question: And the “Patients with TEAE: Oropharyngeal pain” value [4]?
Answer: 1 (8.3%) n (%)

Question: And the “Patients with TEAE: Orthostatic intolerance” value [4]?
Answer: 0 n (%)

Question: And the “Patients with TEAE: Otitis externa” value [4]?
Answer: 0 n (%)

Question: What about the “Patients with TEAE: Palpitations” value [4] of the same molecule?
Answer: 0 n (%)

Question: And the “Patients with TEAE: Pruritus” value [4]?
Answer: 0 n (%)

Question: And the “Patients with TEAE: Respiratory, thoracic and mediastinal disorders” value [4]?
Answer: 1 (8.3%) n (%)

Question: And the “Patients with TEAE: Severe AE” value [4]?
Answer: 0 n (%)

Question: And the “Patients with TEAE: Skin abrasion” value [4]?
Answer: 0 n (%)

Question: What about the “Patients with TEAE: Skin and subcutaneous tissue disorders” value [4] of the same molecule?
Answer: 2 (16.7%) n (%)

Question: And the “Patients with TEAE: Traumatic haematoma” value [4]?
Answer: 0 n (%)

Question: What about the “Patients with TEAE: Ventricular extrasystoles” value [4] of the same molecule?
Answer: 1 (8.3%) n (%)

Question: What about the “Patients with TEAE: Vessel puncture site haematoma” value [4] of the same molecule?
Answer: 0 n (%)

Question: What about the “Patients with TEAE: Vomiting” value [4] of the same molecule?
Answer: 0 n (%)

Question: What about the heart rate change [5] of the same molecule?
Answer: no change

Question: What about the “mean heart rate increase” value [5] of the same molecule?
Answer: 3–6 beats/min

Question: And the “FMD increase from baseline compared to placebo” value [6]?
Answer: ≥ 3%

Question: And the “FMD increases from baseline” value [6]?
Answer: 5–6%

Question: What about the “effect on FMD” value [6] of the same molecule?
Answer: failed to improve FMD

Question: Which “effect on creatinine clearance” value ([7]; 2.5 mg) does the source give for `CCCCCCCCc1ccc(CCC(N)(CO)CO)cc1` [fingolimod] here?
Answer: creatinine clearance impairment

Question: What about the lymphocyte reduction [7] of the same molecule?
Answer: 70–80%
